From patent publication US8088401B2, “Composite material comprising a porous semiconductor impregnated with an organic substance” (Psimedica Limited, priority 2003, dated 2012)
Structures can show the parent of a compound that is named as a salt.

Assays:
[1] = Gravimetric loading of porous silicon p+ membrane with beneficial organic substance; assay type: physicochemical; details: for w/w loading (weight gain after drug loading and washing) / pore volume available occupied by the drug, given as value/drug density: mesoporous p+ silicon membrane, porosity 63%; for w/w loading (weight gain after drug loading and washing): melt, heated solution or rotary evaporation loading; for maximum w/w loading capacity: 63% porosity silicon matrix, from the density; for pore volume available occupied by the drug: liquid applied directly, 70° C. for 20 minutes
Description: The porous membranes were prepared and loaded with beneficial substance according to the following general method:—
A 3 inch diameter p+ wafer (5-15 milli ohm cm) was made mesoporous in a 50:50 by volume mixture of 40 wt % HF and ethanol by anodisation at 35 mA/cm^2 for 90 minutes. […] The membrane was then broken into flakes of weight in the range 10-60 mg for gravimetric and EDX studies of beneficial substance incorporation.
Loading was performed on two similar porous silicon (p+) membranes.
The pore volume available in the porous silicon membrane that can be occupied by the drug is calculated as follows: […]

[2] = HPLC analysis of drug extracted after incorporation into porous silicon; assay type: physicochemical
Description: Following incorporation into the membrane, chlorambucil was extracted and subjected to HPLC analysis. A known amount of the incorporated Chlorambucil/porous silicon (typically 10-15 mg, dependent on the level of incorporation) was placed into a volumetric flask and made up to a volume with 100 ml of ethanol, shaken and sonicated for 30 minutes at 30° C. From this stock solution 25 ml were transferred by pipette to a 100 ml volumetric flask to give the sample solution. Prior to analysis by HPLC the sample was filter through a 0.45 micron filter.
The chromatographic conditions used for this analysis were:—

[3] = 55% porous silicon, thin oxidised layers; cited from earlier work
[4] = aqueous environment; cited from earlier work
[5] = Mortality and survival of tumour-bearing nude mice in the chlorambucil study; assay type: in vivo; details: for mortality rate: without porous silicon
Description: The following protocol was adopted:— • 1. Culture of human cells and implantation of the tumour cells as solid tumours in nude mice: The carcinoma cell-line was cultured in RPMI and Ham's F-12 media respectively with 10% fetal calf serum in a CO2 incubator and subcultured every two to three days until growing to a number enough for implantation in animals. The cells were then implanted as solid tumors in nude mice]. The cells were collected in HBSS (balanced salt solution). One hundred microliters of cell suspension in HBSS (5×10^6 cells) was injected subcutaneously into right gluteal region of nude mice (female, 6 to 9 week old nude mice with average body weight of 25 g, housed in pathogen-free conditions) using a 25-gauge needle. • 2. Animals groups: Animals were randomly grouped into control 1 (injected with peanut oil), control 2 (injected with porous silicon without drug), free chlorambucil (drug injected without porous silicon directly into tumour or injected via intraperitoneal route) and chlorambucil impregnated porous silicon groups. Each group included 16 to 20 animals. • 3. Injection of chlorambucil impregnated porous silicon in transplanted tumours: On day 14 after implantation of tumours (diameter of the tumour about 1 cm), the chlorambucil impregnated formulation was applied to the centre of the tumours. • 4. Tumour volumetrics: The sizes of implanted tumours in nude mice was estimated every 3 days. The largest and smallest diameters were measured by a vernier caliper and tumour volumes estimated according the formula: V=1/2 ab^2, where a and b are largest and smallest tumour diameters respectively, and V is the tumour volume in cm^3.
The effects of intra-tumoural administered chlorambucil loaded porous silicon on the growth of the tumour was studied and compared with control and systemic therapy groups. The body weight of the animals was estimated by subtracting the tumour volume (cm3) from the total body weight (g) every 3 days. The survival time of each experimental animal was recorded.

In the case of CC(C)Cc1ccc(C(C)C(=O)O)cc1 (stereo not drawn) [S-(+)-Ibuprofen], the “w/w loading (weight gain after drug loading and washing)” value [1] is reported as 40.67 % w/w.

In the case of CC(=O)O[C@H]1C(=O)[C@@]2(C)[C@H]([C@H](OC(=O)c3ccccc3)[C@]3(O)C[C@H](OC(=O)[C@H](O)[C@@H](NC(=O)c4ccccc4)c4ccccc4)C(C)=C1C3(C)C)[C@]1(OC(C)=O)CO[C@@H]1C[C@@H]2O [Paclitaxel], the “w/w loading (weight gain after drug loading and washing)” value [1] is reported as 16.71 % w/w and the “degradation after incorporation into and release from porous silicon (HPLC)” value [2] is reported as “without significant degradation”.

In the case of CN(C)CCC=C1c2ccccc2CCc2ccccc21 [Amitriptyline HCl], the “pore volume available occupied by the drug, given as value/drug density” value [1] is reported as 74.07 /drug density % and the “w/w loading (weight gain after drug loading and washing)” value [1] is reported as 35.07 % w/w.

With CC1=CC(=O)c2c(O)cccc2C1=O [Plumbagin] the “pore volume available occupied by the drug, given as value/drug density” value [1] was 98.50 /drug density % and the “w/w loading (weight gain after drug loading and washing)” value [1] was 34.68 % w/w.

In the case of c1ccc([C@H]2CN3CCSC3=N2)cc1 [Levamisole HCl], the “pore volume available occupied by the drug, given as value/drug density” value [1] is reported as 64 /drug density % and the “w/w loading (weight gain after drug loading and washing)” value [1] is reported as 32.93 % w/w.

In the case of Cc1c(C)c2c(c(C)c1O)CC[C@@](C)(CCC[C@H](C)CCC[C@H](C)CCCC(C)C)O2 [Vitamin E, α-tocopherol], the “maximum w/w loading capacity” value [1] is reported as 41%, the “pore volume available occupied by the drug” value [1] is reported as 88% and the “w/w loading (weight gain after drug loading and washing)” value [1] is reported as 37 % w/w.

For albumin, the volume percentage adsorbed [3] is listed as 10.7%.

For CC(=O)O[C@]1(C(C)=O)CC[C@H]2[C@@H]3C[C@H](C)C4=CC(=O)CC[C@]4(C)[C@H]3CC[C@@]21C [Medroxyprogesteron Acetate], the “w/w loading (weight gain after drug loading and washing)” value [1] was 19.81 % w/w.

For O=C(O)CCCc1ccc(N(CCCl)CCCl)cc1 [Chlorambucil], the “apparent activation energy for thermal degradation (Ea)” value [4] is listed as 24.4 kcal/mol, the “pore volume available occupied by the drug, given as value/drug density” value [1] is listed as 88.40 /drug density % and the “w/w loading (weight gain after drug loading and washing)” value [1] is listed as 39.19 % w/w. The “degradation after incorporation into and release from porous silicon (HPLC)” value [2] was “without significant degradation”, the mortality rate ([5]; 720 ug) was 50% and the mortality rate ([5]; 1500 ug (2×LD50), intratumour) was 90%. The LD50 ([5]; nude mice, dose per animal) was 720 µg.

In the case of CCCCCCCCCCCC(=O)O [Lauric Acid], the “pore volume available occupied by the drug, given as value/drug density” value [1] is reported as 55.62 /drug density % and the “w/w loading (weight gain after drug loading and washing)” value [1] is reported as 42.57 % w/w.

In the case of CCN(CC)CCOC(=O)c1ccc(N)cc1 [Procaine], the loading w/v ([1]; EtOH:dH2O 1:1 solution, 110° C., 25 minutes) is reported as 71.38 % w/v and the “w/w loading (weight gain after drug loading and washing)” value [1] is reported as 35.33 % w/w.

With CS(=O)(=O)OCCCCOS(C)(=O)=O [Busulfan] the “pore volume available occupied by the drug, given as value/drug density” value [1] was 78.53 /drug density % and the “w/w loading (weight gain after drug loading and washing)” value [1] was 37.54 % w/w.

In the case of O=P1(N(CCCl)CCCl)NCCCO1 (centres unmarked) [Cyclophosohamide], the “pore volume available occupied by the drug, given as value/drug density” value [1] is reported as 104 /drug density % and the “w/w loading (weight gain after drug loading and washing)” value [1] is reported as 44.4 % w/w.

With Vitamin K the “maximum w/w loading capacity” value [1] was 42%, the “pore volume available occupied by the drug” value [1] was 80% and the “w/w loading (weight gain after drug loading and washing)” value [1] was 36 % w/w.
